Laboratory results as given in PubChem BioAssay (NCI).
Where “and” joins values, the source holds several entries; their conditions need not be identical. Equal values may be shown once.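 Assay format: 96-well plates, 48-hour exposure. Here, GI50 denotes the concentration required for 50% inhibition of growth. TGI denotes the concentration required for complete inhibition of growth.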

Tests used:
Assay in all cases: DTP human tumour cell line panel, 48 h
[1] = test system: M14 melanoma
[2] = test system: PC-3 prostate
[3] = test system: RPMI-8226 leukemia
[4] = test system: MCF7 breast
[5] = test system: SF-268 CNS
[6] = test system: BT-549 breast
[7] = test system: LOX IMVI melanoma
[8] = test system: SW-620 colon
[9] = test system: EKVX NSCLC
[10] = test system: CCRF-CEM leukemia

Compound	GI50 [1]	TGI [1]	GI50 [2]	TGI [2]	GI50 [3] [µM]	TGI [3] [µM]	GI50 [4]	TGI [4]	GI50 [5] [µM]	TGI [5]	GI50 [6]	TGI [6]	GI50 [7]	TGI [7]	GI50 [8]	TGI [8]	GI50 [9] [µM]	TGI [9]	TGI [10]	GI50 [10]
CN(Cc1ccc(C(F)(F)F)cc1)CC(O)C(=O)Nc1ccc(Cl)cc1 (centres undefined)	1.52 µM	3.05 µM	1.77 µM	3.21 µM	1.02	2.8	1.04 µM	2.36 µM	1.4	2.95 µM	1.46 µM	2.88 µM	1.05 µM	2.3 µM	1.54 µM	3.1 µM	1.18	2.51 µM	–	–
C[Si](C)(C)C(CCCCSc1ccccc1)(Sc1ccccc1)Sc1ccccc1	–	–	–	–	–	> 100	–	–	–	> 100 µM	–	–	–	> 100 µM	–	> 100 µM	–	> 100 µM	> 100 µM	–
C#CCNC(=O)ON1C(=O)CCC1=O	–	–	–	–	–	> 100	–	–	–	> 100 µM	–	–	–	> 100 µM	–	> 100 µM	–	> 100 µM	> 100 µM	–
O=C1OC(c2ccccc2)=N/C1=C\c1ccc(Oc2ccc(Cl)c(Cl)c2)cc1	–	> 100 µM	–	–	–	–	–	–	–	57.6 µM	–	–	–	–	–	> 100 µM	–	> 100 µM	59.9 µM	–
Cc1ccc(S(=O)(=O)N=NC=C2c3ccccc3N(O)c3ccccc32)cc1	–	23.2 µM	–	–	–	3.68	–	–	–	19.5 µM	–	–	–	2.76 µM	–	14.7 µM	–	40 µM	2.93 µM	–
O=C(C#Cc1ccccc1)N1c2ccccc2CC1c1c[nH]c2ccccc12 (centres undefined)	–	28.8 µM	–	–	–	43.2	–	–	–	–	–	–	–	19.7 µM	–	30.3 µM	–	42.1 µM	32 µM	–
NC(=O)[C@@H](CC1CC1)[C@@H](CCC(F)(F)F)C(=O)N[C@H]1N=C(c2ccccc2)c2cccc(F)c2NC1=O	> 100 µM	> 100 µM	69 µM	> 100 µM	27.8	> 100	28.3 µM	> 100 µM	> 100	> 100 µM	> 100 µM	> 100 µM	48 µM	> 100 µM	> 100 µM	> 100 µM	> 100	> 100 µM	–	–
Cl/C(N=Nc1ccccc1)=N/Nc1ccccc1	–	–	–	–	–	–	–	–	–	> 100 µM	–	–	–	> 100 µM	–	> 100 µM	–	> 100 µM	> 100 µM	–
O=c1nc(-c2ccccc2)cc(CC(O)c2ccc(Cl)c(Cl)c2)[nH]1 (centres undefined)	–	> 100 µM	–	–	–	–	–	–	–	> 100 µM	–	–	–	> 100 µM	–	> 100 µM	–	> 100 µM	> 100 µM	–
O=C(O)c1cc(=O)c2c([nH]c3ccccc32)s1	–	> 100 µM	–	–	–	> 100	–	–	–	> 100 µM	–	–	–	–	–	> 100 µM	–	> 100 µM	> 100 µM	–
CSc1ncc(Br)c(Sc2nc(N)nc3nc[nH]c23)n1	2.78 µM	> 100 µM	–	–	–	–	1.91 µM	11.9 µM	3.6	85.6 µM	2.64 µM	> 100 µM	0.816 µM	17.7 µM	4.46 µM	24 µM	3.07	55.1 µM	9.3 µM	2.38 µM
CC(=O)NC(CCCCN)C(=O)NCc1ccccc1 (centres undefined)	–	> 100 µM	–	–	–	> 100	–	–	–	> 100 µM	–	–	–	> 100 µM	–	> 100 µM	–	> 100 µM	> 100 µM	–
CN(C)/C=N\c1ccnc(=O)[nH]1	–	> 100 µM	–	–	–	> 100	–	–	–	> 100 µM	–	–	–	> 100 µM	–	> 100 µM	–	> 100 µM	> 100 µM	–
N/C(=N\NS(=O)(=O)c1ccccc1)Oc1ccc(Br)cc1Br	–	> 100 µM	–	–	–	> 100	–	–	–	> 100 µM	–	–	–	> 100 µM	–	24.3 µM	–	> 100 µM	> 100 µM	–
Cc1nc2ccc(Br)cc2c(=O)n1-c1ccc(NC2OCC(O)C(O)C2O)cc1 (centres undefined)	17.9 µM and > 100 µM	35.6 µM and > 100 µM	18.5 µM and > 100 µM	86.9 µM and > 100 µM	–	–	20.8 µM and > 100 µM	51.9 µM and > 100 µM	–	> 100 µM	24.2 µM and 99.5 µM	53.9 µM and > 100 µM	15.3 µM and > 100 µM	33.8 µM and > 100 µM	17.8 µM and > 100 µM	47 µM and > 100 µM	–	> 100 µM	38 µM and > 100 µM	3.8 µM and 34.9 µM
CC1=C2C(=CC(C)(C)[C@@H]2O)C(=O)[C@](C)(O)C12CC2	–	0.0537 µM and 0.0431 µM	–	0.164 µM and 0.0194 µM	–	–	0.00472 µM	0.0469 µM and 0.123 µM	0.00973	0.0727 µM and 0.0659 µM	0.0305 µM	0.107 µM and 0.0788 µM	0.0125 µM	0.0529 µM and 0.0384 µM	0.00597 µM and 0.0168 µM	0.0976 µM and 0.131 µM	0.0409	0.17 µM and 0.221 µM	–	–
COc1ccc(Nc2nc3ccccc3c3occc23)cc1	9.72 µM	18.9 µM	12.9 µM	> 50 µM	8.35	22.6	7.02 µM	27.2 µM	6.55	14.4 µM	6.08 µM	13.5 µM	0.649 µM	5.32 µM	4.06 µM	11 µM	9.96	> 50 µM	–	–
Cc1cc(NC(=O)C2C3C=CC(O3)C2C(=O)O)no1 (centres undefined)	–	> 100 µM	–	–	–	37.4	–	–	–	51.9 µM	–	–	–	29.8 µM	–	5.92 µM	–	> 100 µM	38.5 µM	–
CC1(c2cc3c(cc2Br)OCO3)SCCCS1	–	> 100 µM	–	–	–	91.6	–	–	–	> 100 µM	–	–	–	> 100 µM	–	> 100 µM	–	> 100 µM	> 100 µM	–
Cc1cc(Nc2nc(C(=O)Nc3ccccc3)nc3ccccc23)n[nH]1	3.48 µM	> 25 µM	–	–	12.5	> 25	13 µM	> 25 µM	9.25	> 25 µM	15.7 µM	> 25 µM	4.47 µM	> 25 µM	9.7 µM	> 25 µM	–	–	> 25 µM	4 µM
Cc1cc(C)nc(/C(=N\NC(N)=O)C(=O)Nc2nc3ccc(C)cc3s2)c1	–	> 100 µM	–	–	–	> 69.6	–	–	–	> 100 µM	–	–	–	> 70.5 µM	–	> 100 µM	–	> 100 µM	> 77.8 µM	–
CCOc1ccc(/C(C=O)=C(\Cl)c2ccc(OC)cc2)cc1	–	> 100 µM	–	–	–	> 100	–	> 100 µM	–	> 100 µM	–	> 100 µM	–	> 100 µM	–	> 100 µM	–	> 100 µM	> 100 µM	–
